According to ChEMBL document CHEMBL1201862, “PubChem BioAssay data set” (2004):
Activity calls are given as the source filed them.

How the values were obtained:
[1] = intracellular Trypanosoma cruzi inhibitors in host cells – cell-based, plate reader, cherry-pick samples, set 3, dose response (AID 651818); format: functional;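 further: compounds incubated with infected cells for about four days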
[2] = target: T1, High affinity choline transporter 1 (Homo sapiens, UniProt Q9GZV3); assay: human choline transporter blockers, potency – cell-based, 5-point CRC, membrane potential dye, dose response (AID 504840); format: functional
T1 sequence (Q9GZV3 whole entry): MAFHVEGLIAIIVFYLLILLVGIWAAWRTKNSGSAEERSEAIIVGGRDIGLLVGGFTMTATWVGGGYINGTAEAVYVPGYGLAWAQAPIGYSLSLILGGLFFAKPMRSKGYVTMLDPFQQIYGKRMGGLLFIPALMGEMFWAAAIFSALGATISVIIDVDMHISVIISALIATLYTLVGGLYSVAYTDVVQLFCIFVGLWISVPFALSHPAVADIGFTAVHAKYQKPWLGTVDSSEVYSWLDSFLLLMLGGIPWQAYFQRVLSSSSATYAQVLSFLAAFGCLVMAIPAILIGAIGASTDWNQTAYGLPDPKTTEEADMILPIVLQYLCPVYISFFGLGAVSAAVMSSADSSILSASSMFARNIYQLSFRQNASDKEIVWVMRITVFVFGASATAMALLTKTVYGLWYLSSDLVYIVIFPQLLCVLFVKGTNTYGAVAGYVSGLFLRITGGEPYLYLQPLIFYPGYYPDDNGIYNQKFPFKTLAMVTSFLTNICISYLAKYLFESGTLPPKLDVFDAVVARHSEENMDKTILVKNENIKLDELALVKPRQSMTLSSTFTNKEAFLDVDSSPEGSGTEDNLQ

cells [3] = format: functional, cell-based
cells [4] = format: functional, cell-based; remark: listed apart in the source
[5] = target: T2, Heat shock factor protein 1 (Mus musculus, UniProt P38532); assay: decrease of HSF1-responsive luciferase luminescence – cell-based, NIH3T3, dose retest, confirmation (AID 2382); format: functional;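 further: NIH3T3 fibroblasts with HSF1-driven luciferase reporter stressed by proteasome inhibitor MG132; luminescence from HSF1-driven luciferase expression after 8 hours of MG132 stress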
T2 sequence (P38532 whole entry): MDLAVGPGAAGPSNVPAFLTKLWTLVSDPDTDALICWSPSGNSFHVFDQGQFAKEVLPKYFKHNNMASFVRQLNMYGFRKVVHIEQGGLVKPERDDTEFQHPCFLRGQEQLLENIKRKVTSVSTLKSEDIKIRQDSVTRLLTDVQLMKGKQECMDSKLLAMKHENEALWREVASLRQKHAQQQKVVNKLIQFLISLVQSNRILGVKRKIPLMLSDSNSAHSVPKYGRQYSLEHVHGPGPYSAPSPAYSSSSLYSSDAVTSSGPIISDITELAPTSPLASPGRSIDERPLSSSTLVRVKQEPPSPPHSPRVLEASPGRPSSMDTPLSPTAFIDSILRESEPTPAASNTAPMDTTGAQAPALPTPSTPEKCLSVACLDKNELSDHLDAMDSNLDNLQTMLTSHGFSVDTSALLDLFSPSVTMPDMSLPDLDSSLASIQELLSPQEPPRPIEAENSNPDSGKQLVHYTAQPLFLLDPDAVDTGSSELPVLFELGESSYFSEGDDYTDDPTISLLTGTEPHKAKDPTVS

[6] = target: T3, RNA-binding protein pos-1 (Caenorhabditis elegans, UniProt G5EF15); assay: disruptors of C. elegans POS-1 RNA interaction – biochemical, fluorescence polarization, dose response (AID 1964);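 further: purified POS-1 fused to maltose binding protein made in E. coli; potency of compounds blocking POS-1 binding to fluorescent RNA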
T3 sequence (G5EF15 whole entry): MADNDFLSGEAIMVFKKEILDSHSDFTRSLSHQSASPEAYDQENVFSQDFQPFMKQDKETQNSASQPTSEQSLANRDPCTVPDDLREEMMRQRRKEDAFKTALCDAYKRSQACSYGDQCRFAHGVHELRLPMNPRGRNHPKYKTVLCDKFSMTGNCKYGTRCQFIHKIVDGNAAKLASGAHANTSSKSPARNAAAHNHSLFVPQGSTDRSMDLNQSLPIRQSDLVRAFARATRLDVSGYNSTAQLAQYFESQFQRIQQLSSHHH

[7] = target: T4, Zinc finger protein mex-5 (Caenorhabditis elegans, UniProt Q9XUB2); assay: potency of MEX-5 RNA-binding blockers – biochemical, C. elegans, fluorescence polarization, dose response (AID 1960)
T4 sequence (Q9XUB2 whole entry): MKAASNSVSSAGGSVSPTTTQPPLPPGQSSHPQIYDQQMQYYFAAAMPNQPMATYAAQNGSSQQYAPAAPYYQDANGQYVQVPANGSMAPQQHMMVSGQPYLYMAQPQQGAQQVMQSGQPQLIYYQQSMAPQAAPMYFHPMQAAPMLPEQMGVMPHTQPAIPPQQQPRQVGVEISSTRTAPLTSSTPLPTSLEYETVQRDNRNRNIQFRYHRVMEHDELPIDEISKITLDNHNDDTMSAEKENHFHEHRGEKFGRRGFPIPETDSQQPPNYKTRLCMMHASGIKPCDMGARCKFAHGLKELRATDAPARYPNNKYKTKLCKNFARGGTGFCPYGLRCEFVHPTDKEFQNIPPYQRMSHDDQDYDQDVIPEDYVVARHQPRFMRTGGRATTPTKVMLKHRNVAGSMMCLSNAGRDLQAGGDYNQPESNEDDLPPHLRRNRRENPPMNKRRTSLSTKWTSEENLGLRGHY

[8] = target: T5, Ubiquitin-conjugating enzyme E2 N (Homo sapiens, UniProt P61088); format: functional;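 further: Dose-response confirmation in a TR-FRET assay detecting UBC13-driven polyubiquitin chain formation, inhibition measured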
T5 sequence (P61088 whole entry): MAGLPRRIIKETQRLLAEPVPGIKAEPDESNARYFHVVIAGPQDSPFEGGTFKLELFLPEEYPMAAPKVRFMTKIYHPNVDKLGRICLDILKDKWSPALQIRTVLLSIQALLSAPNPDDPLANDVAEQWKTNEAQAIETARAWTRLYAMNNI

[9] = reduction of Shn3 3'UTR-driven luciferase in osteoblasts – cell-based, Clone20 osteoblasts, firefly luciferase, cherry-picked, dose response (AID 624132); format: functional;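 further: firefly luciferase luminescence from reporter carrying the Shn3 3'UTR in osteoblasts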
[10] = non-specific 3'UTR reporter inhibition in Clone20-Shn3RL – cell-based, Renilla luciferase, cherry-picked, counter-screen for Shn3 inhibitor project, dose response (AID 624133); format: functional

## C[C@@H]1CN([C@@H](C)CO)C(=O)c2cccc(NS(=O)(=O)c3ccc(F)cc3)c2O[C@@H]1CN(C)Cc1ccc(Oc2ccccc2)cc1
[1]
  AC50: 7.95 µM (active)

## C[C@@H]1CCCCO[C@H](CN(C)C(=O)NC2CCCCC2)[C@@H](C)CN([C@H](C)CO)C(=O)c2cc(NC(=O)Nc3ccc(C(F)(F)F)cc3)ccc2O1
[1]
  AC50: 4.85 µM (active)

## C[C@@H]1CN([C@H](C)CO)C(=O)Cc2cc(NC(=O)Nc3ccc(C(F)(F)F)cc3)ccc2O[C@@H]1CN(C)Cc1ccc(-c2ccccc2)cc1
[1]
  AC50: 3.22 µM (active)

## CCOc1ccc(/C=C2\SC(=S)N(NC(=O)c3ccncc3)C2=O)cc1OC
[2]
  IC50: 15.1 µM (active)

## O=C(Nc1ccccc1C(=O)NCCCN1CCOCC1)c1ccc(F)cc1
[2]
  IC50: 7.09 µM (active)

## CCCCc1nnc(NC(=O)c2ccc3nc(O)c(O)nc3c2)s1
Cells [3]
  EC50: > 350 µM (not active)
Cells [4]
  EC50: > 350 µM (not active)

## O=C(Nc1ccc(S(=O)(=O)N2CCOCC2)cc1)c1ccc(Cl)cc1Cl
[5]
  EC50: > 195 µM (not active)
[2]
  IC50: 13.8 µM (active)

## CCNC(=O)c1cc2c(=O)n3cccc(C)c3nc2n(Cc2ccc(C)cc2)c1=N
[6]
  EC50: > 300 µM (not active)
[7]
  EC50: 45.5 µM (active)

## Cc1ccc(C(=O)N[C@@H](C)CN2C3=NC[C@H](Cc4ccccc4)N3C[C@H]2Cc2ccc(O)cc2)cc1Br
[8]
  IC50: > 20 µM (inactive)

## COc1ccccc1NC(=O)CSc1nc2ccccc2n1C(C)=O
[8]
  IC50: > 20 µM (inactive)

## Cc1ccc2c(c1)N(CCCC(=O)NCC1COc3ccccc3O1)C(=O)CO2 (stereo not drawn)
[2]
  IC50: 13.8 µM (active)

## C/C=C(\C)CN1CCC(Oc2cccc(C(=O)NCc3ccccn3)c2)CC1
[2]
  IC50: 12.3 µM (active)

## CN(C)S(=O)(=O)c1cccc(COc2ncnc3c(Cl)cc(Cl)cc23)c1
[8]
  IC50: > 20 µM (inactive)

## CCCCNc1cccc2c1S(=O)(=O)N(CCCC)CC(COCc1ccccc1)O2 (stereo not drawn)
[9]
  AC50: 8.93 µM (active)
[10]
  AC50: 31.7 µM (active)

## COc1cccc(-c2nn(C)c3sc(C(=O)NCCCN(C)Cc4ccccc4)cc23)c1
[8]
  IC50: > 20 µM (inactive)

## O=C(COC(=O)CCCCCNC1=NS(=O)(=O)c2ccccc21)Nc1ccc(Cl)c(Cl)c1
[8]
  IC50: > 20 µM (inactive)

## CCOC(=O)C1=C(C)OC(N)=C(C#N)C1c1ccc(O)c(OC)c1 (stereo not drawn)
[6]
  EC50: > 300 µM (not active)
[7]
  EC50: > 300 µM (not active)

## Cc1ccc(CN(C)C(=O)CC2C(=O)NCCN2CC2CCCCC2)cc1 (stereo not drawn)
[6]
  EC50: 175 µM (active)
[7]
  EC50: > 300 µM (not active)

## COc1ccccc1CC(=N)NO
Cells [3]
  EC50: > 350 µM (not active)
Cells [4]
  EC50: > 350 µM (not active)

## COc1ccccc1NS(=O)(=O)c1cccc(C(=O)NNC(=O)c2ccc(Cl)nc2)c1
[8]
  IC50: > 20 µM (inactive)

## C=CCOc1ccc(C(c2c(C)n(C)n(-c3ccccc3)c2=O)c2c(C)n(C)n(-c3ccccc3)c2=O)cc1
[5]
  EC50: > 195 µM (not active)

## CCOc1ccccc1NC(=O)COc1cccnc1[N+](=O)[O-]
[8]
  IC50: > 20 µM (inactive)

## C[C@H]1CN([C@@H](C)CO)C(=O)c2cccc(NC(=O)C3CCCCC3)c2O[C@H]1CN(C)Cc1ccc(C(=O)Nc2ccccc2N)cc1
[1]
  AC50: 3.38 µM (active)

## C[C@H]1CN([C@@H](C)CO)C(=O)c2cccc(NC(=O)c3ccc(-c4nccs4)cc3)c2O[C@@H]1CN(C)Cc1ccc(-c2ccccc2)cc1
[1]
  AC50: 2.93 µM (active)

## CCN1C(=O)/C(=C\N(C)C)NC1=S
[6]
  EC50: 22.6 µM (active)
[7]
  EC50: 154 µM (inconclusive)

## CCOC(=O)c1ccc(-n2c(CCC(=O)O)ccc2-c2ccc(F)cc2)cc1
[6]
  EC50: > 300 µM (not active)
[7]
  EC50: > 300 µM (not active)

## COc1ccc(S(=O)(=O)N(C)C[C@@H]2Oc3c(NC(=O)c4nc5ccccc5s4)cccc3C(=O)N([C@H](C)CO)C[C@@H]2C)cc1
[1]
  AC50: 1.17 µM (active)

## COc1ccc(S(=O)(=O)Nc2ccc3c(c2)C(=O)N([C@H](C)CO)C[C@H](C)[C@@H](CN(C)Cc2ccc(-c4ccccc4)cc2)O3)cc1
[1]
  AC50: 3.32 µM (active)

## C#Cc1ccc([C@@H]2C=C(C(=O)OCC=C)O[C@H](OCc3ccc(CO)cc3)C2)cc1
[5]
  EC50: > 195 µM (not active)

## COc1ccc(CCC(=O)Nc2cccc(Cl)c2)cc1
[6]
  EC50: > 300 µM (not active)
[7]
  EC50: > 300 µM (not active)

## C[C@@H]1CN([C@H](C)CO)C(=O)Cc2cc(NS(=O)(=O)c3ccccc3)ccc2O[C@@H]1CN(C)Cc1ccc(C(=O)Nc2ccccc2N)cc1
[1]
  AC50: 3.75 µM (active)

## C[C@@H]1CCCCO[C@@H](CN(C)CC2CCCCC2)[C@@H](C)CN([C@H](C)CO)C(=O)c2cc(NC(=O)Nc3ccc4c(c3)OCO4)ccc2O1
[1]
  AC50: 0.75 µM (active)

## C[C@@H]1CN([C@H](C)CO)C(=O)Cc2cc(NC(=O)Nc3ccc(F)cc3)ccc2O[C@@H]1CN(C)Cc1ccc(Oc2ccccc2)cc1
[1]
  AC50: 2.71 µM (active)

## CCOC(=O)Cc1csc(NS(=O)(=O)c2ccc3c4c(cccc24)C(=O)N3CC)n1
[2]
  IC50: 4.79 µM (active)

## Cn1c(C(=O)NN)cc2cc(OCc3ccccc3)ccc21
[5]
  EC50: > 195 µM (not active)

## C[C@@H]1CCCCO[C@@H](CN(C)Cc2ccc(C(F)(F)F)cc2)[C@@H](C)CN([C@H](C)CO)C(=O)c2cc(NC(=O)C3CCCCC3)ccc2O1
[1]
  AC50: 6.38 µM (active)

## CNC(=O)Cn1nc(C)c2ccccc2c1=O
[5]
  EC50: > 195 µM (not active)

## CCOC(=O)C(=NC1CCS(=O)(=O)C1)NNc1cc(Cl)ccc1Cl (stereo not drawn)
[8]
  IC50: > 20 µM (inactive)

## CCOc1ccc(NC(=O)CC2C(=O)Nc3ccccc3N2C(=O)c2ccccc2)cc1 (stereo not drawn)
Cells [3]
  EC50: > 350 µM (not active)
Cells [4]
  EC50: > 350 µM (not active)

## CC(C)c1cc(-c2cc(C(=O)NCc3ccccc3)on2)nc(NC2CCCC2)n1
Cells [3]
  EC50: > 350 µM (not active)
Cells [4]
  EC50: > 350 µM (not active)

## NC(=S)N=Nc1c(O)n(CCCl)c2ccc(Cl)cc12
[8]
  IC50: > 20 µM (inactive)

## Cc1noc(C)c1COC(=O)C1CC(O)CN1S(=O)(=O)c1ccc(Cl)cc1 (stereo not drawn)
Cells [3]
  EC50: > 350 µM (not active)
Cells [4]
  EC50: > 350 µM (not active)

## COc1ccc(Cc2nnc(SCC(=O)NC3CCCCC3)n2C)cc1
Cells [3]
  EC50: > 350 µM (not active)
Cells [4]
  EC50: > 350 µM (not active)

## Cc1noc(C)c1CSc1ncnc2sc3c(c12)CCC3
[5]
  EC50: > 195 µM (not active)
